# Assay: Stability constant (log βn) of ligand with Fe(III)
# Settings: Fe(III) (target) minus Ca (interfering), from Table 1
# Description: Herein the stability constant for the reaction of a metal-ion (M) and a sequestrant or ligand (L) is defined as follows: M+nL⇄MLn
# where the stability constant is βn=[MLn]/[M][L]^n, wherein [MLn] is the concentration of “complexed” metal-ion, [M] is the concentration of free (uncomplexed) metal-ion and [L] is the concentration of free ligand. The log of the stability constant is log βn, and n is the number of ligands, which coordinate with the metal.
smiles,measurement,value
"O=C(O)CN(CCN(CC(=O)O)CC(=O)O)CCN(CC(=O)O)CC(=O)O [DTPA, diethylenetriaminepentaacetic acid]",selectivity: difference between the log stability constants,17.2
